Experiments:
[1] = target: T1, active BTK enzyme (Upstate 14-552) (Homo sapiens, UniProt Q06187); assay: In Vitro BTK Kinase Assay: Btk-PolyGAT-LS Assay; format: biochemical; settings: ATP 10 μM, polyGAT 100 nM, BTK 0.25 nM, 30 minutes, TRF readout
T1 construct: purchased Upstate 14-552
How it was run: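 Active BTK (0.25 nM) phosphorylates fluorescein-polyGAT peptide (100 nM) with 10 µM ATP in Tris-HCl pH 7.5/MgCl2/DTT buffer, 30 min, EDTA stop. Phosphopeptide detected by TR-FRET with Tb-PY20 antibody after 45 min at room temperature; IC50 from four-parameter fit against DMSO and EDTA controls.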

[2] = tested on: CD69 expression on CD19+ B cells in human whole blood; assay: In Vitro whole blood CD69 Assay; format: cell-based; settings: B-cell; human heparinized whole blood, anti-human IgD stimulation overnight, percentage of CD19+ B cells expressing CD69, flow cytometry; read-out: IC50
Description: In Vitro whole blood CD69 Assay
Human heparinized venous blood from health donors was aliquoted into 96-well plate and “spiked” with serial dilutions of formula I compounds in DMSO or with DMSO without drug. The final concentration of DMSO in all wells was 0.1%. The plate was incubated at 37° C. for 30 min. Drug-containing samples were stimulated with […] mouse anti-human IgD-dextran (1A62) or […] polyclonal rabbit F(ab′)2 anti-human IgD. Phosphate-buffered saline (PBS) was added to the negative control unstimulated sample and the plates were incubated overnight (18 to 22 hours) at 37° C. Cells were stained with fluorochrome-conjugated anti-CD19 and anti-CD69 antibodies. Lyse/fix solution was used to remove red blood cells by hypotonic lysis and to fix the remaining cells, which were then analyzed by flow cytometry. CD19+ B cells were gated and analyzed for CD69 expression. The percentage of B cells expressing CD69 was plotted versus the log 10 of the concentration of the drug and the best-fit curves (variable Hill slope) were generated to obtain the IC50 value.

T1 sequence (Q06187 whole entry): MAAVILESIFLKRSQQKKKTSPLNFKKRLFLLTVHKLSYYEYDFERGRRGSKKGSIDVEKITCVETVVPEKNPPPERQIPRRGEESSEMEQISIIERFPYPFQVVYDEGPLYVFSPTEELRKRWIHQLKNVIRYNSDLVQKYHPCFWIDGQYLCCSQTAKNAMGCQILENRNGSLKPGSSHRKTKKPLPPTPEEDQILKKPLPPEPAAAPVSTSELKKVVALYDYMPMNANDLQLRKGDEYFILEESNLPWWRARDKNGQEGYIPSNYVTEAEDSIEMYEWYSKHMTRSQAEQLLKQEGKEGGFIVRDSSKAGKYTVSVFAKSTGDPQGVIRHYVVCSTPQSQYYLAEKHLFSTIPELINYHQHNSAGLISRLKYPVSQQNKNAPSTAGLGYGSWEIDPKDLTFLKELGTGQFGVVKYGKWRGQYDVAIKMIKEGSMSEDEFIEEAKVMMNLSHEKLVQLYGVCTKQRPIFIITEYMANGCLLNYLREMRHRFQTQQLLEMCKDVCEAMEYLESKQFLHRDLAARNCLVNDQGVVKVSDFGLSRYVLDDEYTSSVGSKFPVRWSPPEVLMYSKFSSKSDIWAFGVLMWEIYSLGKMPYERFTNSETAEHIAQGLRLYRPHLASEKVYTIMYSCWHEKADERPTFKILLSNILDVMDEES

IC50 [1]	IC50 [2]	SMILES
≤ 1 nM	< 100 nM	C=CC(=O)N(C)C1CCCN(c2cnccc2-c2ccc(CNC(=O)c3noc(C(C)(C)C)n3)c(C)c2)C1 (stereo not drawn) [Example 12, 5-(tert-butyl)-N-(2-methyl-4-(3-(3-(N-methylacrylamido)piperidin-1-yl)pyridin-4-yl)benzyl)-1,2,4-oxadiazole-3-carboxamide]
1 to 10 nM	> 1000 nM	C=CC(=O)N(C)C1CCCN(c2cnccc2-c2ccc(CNC(=O)c3cn(C(C)(C)C)cn3)c(C)c2)C1 (stereo not drawn) [Example 43, 1-(tert-butyl)-N-(2-methyl-4-(3-(3-(N-methylacrylamido)piperidin-1-yl)pyridin-4-yl)benzyl)-1H-imidazole-4-carboxamide]
1 to 10 nM	100 to 1000 nM	Cc1cc(-c2ccncc2N2CCN(C(=O)/C=C/CN(C)C)CC2)ccc1CN(C)C(=O)c1noc(C(C)(C)C)n1 [Example 71, (E)-5-(tert-butyl)-N-(4-(3-(4-(4-(dimethylamino)but-2-enoyl)piperazin-1-yl)pyridin-4-yl)-2-methylbenzyl)-N-methyl-1,2,4-oxadiazole-3-carboxamide]

— US20240327380A1, “BTK INHIBITORS” (BIOGEN MA INC., priority 2020, published 2024)
